Experimental data: patent US20240116985A1, “STAPLED PEPTIDES AND METHODS THEREOF” (priority 2020, published 2024)
Like-named read-outs stand apart in the source and are kept apart here.

Tests used:
[1] = biological target: T1, full-length beta-Catenin (Uniprot ID P35222) (Homo sapiens, UniProt P35222); experiment: Fluorescence polarization IC50 (beta-catenin / 5FAM-TCF4 10-53 competition); type: binding; conditions: fluorescence polarization; read-out: beta-Catenin FP IC50
T1 construct: 10 nM full-length beta-Catenin (Uniprot ID P35222)
T1 sequence (P35222 1-781): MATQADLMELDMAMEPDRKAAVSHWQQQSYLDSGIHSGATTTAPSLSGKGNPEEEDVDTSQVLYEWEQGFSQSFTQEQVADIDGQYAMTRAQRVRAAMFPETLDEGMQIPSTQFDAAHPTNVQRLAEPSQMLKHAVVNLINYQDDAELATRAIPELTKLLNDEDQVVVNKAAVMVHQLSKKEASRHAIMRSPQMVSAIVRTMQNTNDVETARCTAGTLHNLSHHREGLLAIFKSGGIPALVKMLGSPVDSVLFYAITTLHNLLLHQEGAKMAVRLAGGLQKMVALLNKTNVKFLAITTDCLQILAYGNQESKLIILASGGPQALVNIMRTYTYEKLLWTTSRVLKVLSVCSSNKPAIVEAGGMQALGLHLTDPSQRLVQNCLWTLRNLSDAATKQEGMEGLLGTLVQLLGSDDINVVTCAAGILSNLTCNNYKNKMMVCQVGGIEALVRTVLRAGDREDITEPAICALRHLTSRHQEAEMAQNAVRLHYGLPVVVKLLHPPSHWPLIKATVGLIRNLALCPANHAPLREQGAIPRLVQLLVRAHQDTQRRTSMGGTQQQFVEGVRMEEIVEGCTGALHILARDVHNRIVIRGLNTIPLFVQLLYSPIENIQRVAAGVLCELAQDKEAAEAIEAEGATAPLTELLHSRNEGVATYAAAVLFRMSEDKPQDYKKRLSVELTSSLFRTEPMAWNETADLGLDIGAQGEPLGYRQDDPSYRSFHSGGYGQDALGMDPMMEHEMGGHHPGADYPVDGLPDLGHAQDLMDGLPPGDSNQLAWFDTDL

[2] = biological target: T2, beta-catenin/TCF4 engagement (Homo sapiens, UniProt P35222); experiment: Nano-BRET target engagement assay (B-cat-Halo & TCF4-Luc in HEK293 cells); type: cell-based; conditions: read-out: NanoBRET Abs IC50
T2 construct: expressed in transfected cells; host or cells: HEK293
T2 sequence (P35222 1-781): T1 sequence (P35222 1-781)

| SMILES | IC50 [1] [nM] | IC50 ([2]; absolute IC50) [nM] | IC50 [2] [nM] |
| --- | --- | --- | --- |
| CC(=O)N1CCC[C@]12CC=CCCCC1(CCCC=CCCCOC(=O)N3CC[C@@](C(=O)N[C@@H](Cc4ccsc4)C(=O)N[C@@H](Cc4csc5ccccc45)C(=O)N[C@@H](CCC(N)=O)C(N)=O)(C3)NC(=O)[C@H](CC(C)C)NC(=O)[C@H](Cc3ccccc3)NC(=O)C(C)(C)NC(=O)[C@H](C)NC(=O)[C@H](CC(=O)O)NC(=O)[C@H](CC(=O)O)NC1=O)NC(=O)[C@H](CC(C)(C)C)NC(=O)[C@H](CC(=O)O)NC2=O (stereo partly drawn) [I-1178, Ac-PL3-Asp-Npg-B5-Asp-Asp-Ala-Aib-Phe-Leu-PyrS2-3Thi-BztA-Gln-NH2] | 54.5 | 28800 |  |
| CC(=O)N1CCC[C@]12CC=CCCCC1(CCCC=CCCCOC(=O)N3CC[C@@](C(=O)N[C@@H](Cc4ccccc4Cl)C(=O)N[C@@H](Cc4csc5ccccc45)C(=O)N[C@@H](CCC(N)=O)C(N)=O)(C3)NC(=O)[C@H](Cc3ccccc3)NC(=O)[C@H](Cc3ccccc3)NC(=O)[C@H](C)NC(=O)[C@H](C)NC(=O)[C@H](Cc3ccccc3C(=O)O)NC(=O)[C@H](CC(=O)O)NC1=O)NC(=O)[C@H](CC(C)(C)C)NC(=O)[C@H](CC(=O)O)NC2=O (stereo partly drawn) [I-1657, Ac-PL3-Asp-Npg-B5-Asp-2COOHF-Ala-Ala-Phe-Phe-PyrS2-2C1F-BztA-Gln-NH2] | 36 | 11000 |  |
| CC(=O)N1CCC[C@]12CC=CCCCC1(CCCC=CCCCCCC[C@@](C)(C(=O)N[C@@H](Cc3ccccc3)C(=O)N[C@@H](Cc3csc4ccccc34)C(=O)N[C@@H](CCC(N)=O)C(N)=O)NC(=O)[C@H](CCO)NC(=O)[C@H](Cc3ccccc3)NC(=O)[C@H](C)NC(=O)[C@H](C)NC(=O)[C@H](CCC(=O)O)NC(=O)[C@H](CC(=O)O)NC1=O)NC(=O)[C@H](CCCCN)NC(=O)[C@H](CC(=O)O)NC2=O (stereo partly drawn) [I-1554, Ac-PL3-Asp-Lys-B5-Asp-Glu-Ala-Ala-Phe-Hse-S8-Phe-BztA-Gln-NH2] | 63 | > 20000 |  |
| CC(C)C[C@H](NC(=O)[C@]12CCN(C1)C(=O)OCCCC=CCCCC1(CCCC=CCCC(=O)N3CCC[C@@]3(C)C(=O)N[C@@H](CC(=O)O)C(=O)N1)C(=O)N[C@@H](C)C(=O)N[C@@H](CC(=O)O)C(=O)N[C@@H](CC(=O)O)C(=O)N[C@@H](C)C(=O)N[C@@H](C)C(=O)N[C@@H](Cc1ccccc1)C(=O)N2)C(=O)N[C@@H](Cc1ccsc1)C(=O)N[C@@H](Cc1csc2ccccc12)C(=O)N[C@@H](CCC(N)=O)C(N)=O (stereo partly drawn) [I-2599, 4pentenyl-MePro-Asp-B5-Ala-Asp-Asp-Ala-Ala-Phe-PyrS2-Leu-3Thi-BztA-Gln-NH2] | 234 |  | > 20000 |
| CC(=O)N1CCC[C@]12CC=CCCCC1(CCCC=CCCCOC(=O)N3CC[C@@](C(=O)N[C@@H](Cc4ccsc4)C(=O)N[C@@H](Cc4csc5ccccc45)C(=O)N[C@@H](CCC(N)=O)C(N)=O)(C3)NC(=O)[C@H](CC(C)C)NC(=O)[C@H](Cc3ccccc3)NC(=O)[C@H](C)NC(=O)[C@H](C)NC(=O)[C@H](CCn3cc(C(C)(C)C(=O)O)nn3)NC(=O)[C@H](CC(=O)O)NC1=O)NC(=O)[C@H](CC(C)(C)C)NC(=O)[C@H](CC(=O)O)NC2=O (stereo partly drawn) [I-2079, Ac-PL3-Asp-Npg-B5-Asp-[CMe2CO2H]TriAzDab-Ala-Ala-Phe-Leu-PyrS2-3Thi-BztA-Gln-NH2] | 8 |  | 15100 |
| CCCC[C@@H]1NC(=O)[C@H](CC(=O)O)NC(=O)[C@]2(CC=CCCCC3(CCCC=CCCCCCC[C@@](C)(C(=O)N[C@@H](Cc4ccccc4)C(=O)N[C@@H](Cc4csc5ccccc45)C(=O)N[C@@H](CCC(N)=O)C(N)=O)NC(=O)[C@H](CCO)NC(=O)[C@H](Cc4ccccc4)NC(=O)[C@H](C)NC(=O)[C@H](C)NC(=O)[C@H](CCC(=O)O)NC(=O)[C@H](CC(=O)O)NC3=O)NC1=O)CCCN2C(C)=O (stereo partly drawn) [I-1524, Ac-PL3-Asp-nLeu-B5-Asp-Glu-Ala-Ala-Phe-Hse-S8-Phe-BztA-Gln-NH2] | 17 | 8100 |  |
| CCSSCCOC(=O)C[C@@H]1NC(=O)[C@H](CC(=O)O)NC(=O)C2(CCCC=CCCCOC(=O)N3CC[C@@](C(=O)N[C@@H](Cc4ccsc4)C(=O)N[C@@H](Cc4csc5ccccc45)C(=O)N[C@@H](CCC(N)=O)C(N)=O)(C3)NC(=O)[C@H](CC(C)C)NC(=O)[C@H](Cc3ccccc3)NC(=O)[C@H](C)NC(=O)[C@H](C)NC1=O)CCCC=CC[C@]1(CCCN1C(C)=O)C(=O)N[C@@H](CC(=O)O)C(=O)N[C@@H](CC(C)(C)C)C(=O)N2 (stereo partly drawn) [I-1965, Ac-PL3-Asp-Npg-B5-Asp-[EtSSEt]AspE-Ala-Ala-Phe-Leu-PyrS2-3Thi-BztA-Gln-NH2] | 633 |  | 25200 |
| CC(=O)N1CCC[C@]12CCCCCCC1(CCCCCCCCOC(=O)N3CC[C@@](C(=O)N[C@@H](Cc4ccsc4)C(=O)N[C@@H](Cc4csc5ccccc45)C(=O)N[C@H](C(N)=O)C(C)C)(C3)NC(=O)[C@H]([C@@H](C)O)NC(=O)[C@H](Cc3ccccc3)NC(=O)[C@H](C)NC(=O)[C@H](CCCCNC(C)C)NC(=O)[C@H](CN(CC(=O)O)CC(F)(F)F)NC(=O)[C@H](CC(=O)O)NC1=O)NC(=O)[C@H](CC(C)(C)C)NC(=O)[C@H](CC(=O)O)NC2=O (stereo partly drawn) [I-1770, Ac-PL3-Asp-Npg-B5-Asp-TfeGA-iPrLys-Ala-Phe-Thr-PyrS2-3Thi-BztA-Val-NH2] | 175 | > 20000 |  |
| CC(=O)N1CCC[C@]12CC=CCCCC1(CCCC=CCCCOC(=O)N3CC[C@@](C(=O)N[C@@H](Cc4ccsc4)C(=O)N[C@@H](Cc4ccc5ccccc5c4)C(=O)N[C@@H](C)C(N)=O)(C3)NC(=O)[C@H](C(C)C)NC(=O)[C@H](Cc3ccccc3)NC(=O)[C@H](C)NC(=O)[C@H](CCC(N)=O)NC(=O)[C@H](Cc3cccc(C(=O)O)c3)NC(=O)[C@H](CC(=O)O)NC1=O)NC(=O)[C@H](CC(C)(C)C)NC(=O)[C@H](CC(=O)O)NC2=O (stereo partly drawn) [I-2310, Ac-PL3-Asp-Npg-B5-Asp-3COOHF-Gln-Ala-Phe-Val-PyrS2-3Thi-2NapA-Ala-NH2] | 18 | 8900 |  |
| CC(=O)N1CCC[C@]12CC=CCCCC1(CCCC=CCCCOC(=O)N3CC[C@@](C(=O)N[C@@H](Cc4ccccc4Cl)C(=O)N[C@@H](Cc4csc5ccccc45)C(=O)N[C@@H](CO)C(=O)N[C@H](CO)[C@@H](C)O)(C3)NC(=O)[C@H](CC(C)C)NC(=O)[C@H](Cc3ccccc3)NC(=O)[C@H](C)NC(=O)[C@H](C)NC(=O)[C@H](Cc3cccc(C(=O)O)c3)NC(=O)[C@H](CC(=O)O)NC1=O)NC(=O)[C@H](CC(C)(C)C)NC(=O)[C@H](CC(=O)O)NC2=O (stereo partly drawn) [I-1905, Ac-PL3-Asp-Npg-B5-Asp-3COOHF-Ala-Ala-Phe-Leu-PyrS2-2C1F-BztA-Ser-Thro1] | 20 |  | 9700 |
| CC(=O)N1CCC[C@]12CC=CCCCC1(CCCC=CCCCCCC[C@@](C)(C(=O)N[C@@H](Cc3ccccc3)C(=O)N[C@@H](Cc3csc4ccccc34)C(=O)N[C@@H](CCC(N)=O)C(N)=O)NC(=O)[C@H](CCC(N)=O)NC(=O)[C@H](Cc3ccccc3)NC(=O)[C@H](C)NC(=O)[C@H](C)NC(=O)[C@H](CCC(=O)O)NC(=O)[C@H](CC(=O)O)NC1=O)NC(=O)[C@H](Cc1ccccc1)NC(=O)[C@H](CC(=O)O)NC2=O (stereo partly drawn) [I-1549, Ac-PL3-Asp-Phe-B5-Asp-Glu-Ala-Ala-Phe-Gln-S8-Phe-BztA-Gln-NH2] | 13 | 11600 |  |
| CCNC(=O)CC[C@H](NC(=O)[C@H](Cc1csc2ccccc12)NC(=O)[C@H](Cc1ccccc1C(F)(F)F)NC(=O)[C@]12CCN(C1)C(=O)OCCCC=CCCCC1(CCCC=CC[C@]3(CCCN3C(C)=O)C(=O)N[C@@H](CC(=O)O)C(=O)N[C@@H](CC(C)(C)C)C(=O)N1)C(=O)N[C@@H](CC(=O)O)C(=O)N[C@@H](Cc1cccc(C(=O)O)c1)C(=O)N[C@@H](C)C(=O)N[C@@H](C)C(=O)N[C@@H](Cc1ccccc1)C(=O)N[C@@H](CC)C(=O)N2)C(=O)N[C@@H](C)C(N)=O (stereo partly drawn) [I-2472, Ac-PL3-Asp-Npg-B5-Asp-3COOHF-Ala-Ala-Phe-Abu-PyrS2-2F3MeF-BztA-INHEt]GlnR-Ala-NH2] | 13 | 1800 |  |
| CC(=O)N1CCC[C@]12CC=CCCCC1(CCCC=CCCCOC(=O)N3CC[C@@](C(=O)N[C@@H](Cc4ccccc4Cl)C(=O)N[C@@H](Cc4csc5ccccc45)C(=O)N[C@@H](CC(N)=O)C(N)=O)(C3)NC(=O)[C@H](C)NC(=O)[C@H](Cc3ccccc3)NC(=O)[C@H](C)NC(=O)[C@H](C)NC(=O)[C@H](Cc3cccc(C(=O)O)c3)NC(=O)[C@H](CC(=O)O)NC1=O)NC(=O)[C@H](CC(C)(C)C)NC(=O)[C@H](CC(=O)O)NC2=O (stereo partly drawn) [I-2036, Ac-PL3-Asp-Npg-B5-Asp-3COOHF-Ala-Ala-Phe-Ala-PyrS2-2C1F-BztA-Asn-NH2] | 19 |  | 12900 |
| CC(=O)N1CCC[C@]12CC=CCCCC1(CCCC=CCCCOC(=O)N3CC[C@@](C(=O)N[C@@H](Cc4ccccc4)C(=O)N[C@@H](Cc4csc5ccccc45)C(=O)N[C@@H](CCCCN)C(N)=O)(C3)NC(=O)[C@H](CC(C)C)NC(=O)[C@H](Cc3ccccc3)NC(=O)[C@H](C)NC(=O)[C@H](CCCCNC(C)C)NC(=O)[C@H](CCC(N)=O)NC(=O)[C@H](CC(=O)O)NC1=O)NC(=O)[C@H](CC1CCCCC1)NC(=O)[C@H](CC(=O)O)NC2=O (stereo partly drawn) [I-2429, Ac-PL3-Asp-Cha-B5-Asp-Gln-iPrLys-Ala-Phe-Leu-PyrS2-Phe-BztA-Lys-NH2] | 10 | > 20000 |  |
